Patent US20100280040A1 (KAOHSIUNG MEDICAL UNIVERSITY, priority 2009, published 2010)
Values joined by “and” are separate entries in the source; they are usually repeats but may differ in a detail not shown here. Identical values can stand only once. Like-named read-outs stand apart in the source and are kept apart here. Marks after values point to notes of the source that are not given here.

Key:
[1] = test system: rat tracheal smooth muscle cells (TSMCs); experiment: MTT assay on rat tracheal smooth muscle cells; type: cell-based, Wistar rat; conditions: for cytotoxicity on rat TSMCs: 0.001 to 100 μM, 24 hours, MTT
Description: Tracheal tissue of Wistar rat (200 g to 250 g) was aseptically obtained and connective tissue around the tracheal tissue was removed. […] Supernatant was discarded after centrifugation, and cells were resuspended in 10 ml fresh medium B and cultured on 10 cm cull culture plate to proceed the subsequent experiments. The third to sixth generations of cells were used in the following experiments. Cell concentration was adjusted to 10^4 cells/ml by using a cell counter. Ten thousand cells (1 ml) were inoculated in 24-well culture plate for 24 hours, and cells were attached thereon. Medium B then was added to culture cells for another 24 hours. Subsequently, different concentrations of drugs were added into wells for continuously incubating for 24 hours in low-oxygen incubator. MTT (methylhiazolyldiphenyl-tetrazolium bromide, 100 μl, 5 mg/ml) was added into the wells for darkly reacted for 3 hours at 37° C. Isopropanol of 500 μl was added to solve the […], formazan, after MTT was withdrawn. After 10 minutes, the supernatant ([…]) was transferred to the new 96-well culture plate to determine the absorbance at 540 nm (OD540) and 630 nm (OD630). The effect of drug on cellular growth was evaluated by the value of “OD540-OD630”.

[2] = Pharmacokinetic analysis of MSC in male ICR mice (plasma MSC by LC-MS/MS); type: in vivo; conditions: for Maximum mean plasma concentration of MSC / Minimum mean plasma concentration of MSC / Mean plasma concentration of MSC: ICR mice; for Maximum mean plasma concentration of MSC: 2 min; for Mean plasma concentration of MSC: 2 hours
[3] = Pharmacokinetic analysis of Pulmodil in male SD rats (plasma MSC by LC-MS/MS); type: in vivo, male Sprague-Dawley (SD) rats; conditions: for Maximum mean plasma concentration of MSC / Minimum mean plasma concentration of MSC / Mean plasma concentration of MSC: SD rats
[4] = Mean plasma concentration of MSC after different dosage forms of Pulmodil in SD rats (3 groups, 8 rats per group); type: in vivo
Excerpt: First, SD rats were divided into 3 groups, 8 rats per group.

[5] = for Maximum mean plasma concentration of MSC / Minimum mean plasma concentration of MSC: CD-1 (Crl) mice; for Maximum mean plasma concentration of MSC: 2 min
Description: These pharmaceutical solutions were vortexed and sonicated to be fully dissolved to accomplish the preparation of drugs for i.v. administration.
Male Sprague-Dawley (SD) rats (body weight: 250˜292 g) and male CD-1 (Crl) mice (body weight: 23˜25 g) were purchased from BioLasco Taiwan Co., Ltd., Taiwan, and male ICR mice (body weight: 23˜25 g) were provided from MDS Pharma Services (King of Prussia, Pa., U.S.A.). […] Rats and mice were fasted at least 16 hours prior to oral administration.
Regarding CD-1 (Crl) mice and ICR mice, blood samples were collected by cardiac puncture post i.v. administration for 0, 2, 5, 15, 30 minutes, 1, 1.5, 2, 4, 6, 9, 24 and 27 hours (a total of 13 sampling time points). Blood samples of mice were collected by cardiac puncture before oral administration. Blood samples of three mice were collected at each time point by cardiac puncture post oral administration for 15, 30 minutes, 1, 1.5, 2, 4, 6, 9, 24 and 27 hours (a total of 11 sampling time points). Blood sample (0.5˜0.7 ml) collected by cardiac puncture was placed in a 1.5-ml Eppendorf microcentrifuge tube containing 5 μl of anti-coagulant heparin sodium (5,000 I.U./ml), followed by centrifugation at 12,000 rpm at 4° C. for 10 minutes. The plasma fraction was transferred to a clean microcentrifuge tube and stored at −70° C.
Plasma sample was mixed with acetonitrile and centrifuged, and the supernatant was injected onto an LC column. The pharmacokinetic parameters were calculated from mean plasma concentration by WinNonlin Standard program (version 3.1, Pharsight Corp.).

[6] = MSC single i.v. 2.0 mg/kg, male ICR mice
[7] = MSC single oral 20.0 mg/kg, male ICR mice
[8] = Pulmodil single i.v. 2.0 mg/kg, male SD rats
[9] = Pulmodil single oral 18.3 mg/kg, male SD rats
[10] = Pulmodil single sublingual 3.4 mg/kg, male SD rats
[11] = Pulmodil-1 single i.v. 2.0 mg/kg, male CD-1 (Crl) mice
[12] = Pulmodil-1 single oral 20.0 mg/kg, male CD-1 (Crl) mice

Compound: Cn1c(=O)c2c(ncn2CCN2CCN(c3ccccc3Cl)CC2)n(C)c1=O [MSC]
- cytotoxicity on rat TSMCs [1]: did not show cytotoxicity
- Maximum mean plasma concentration of MSC ([2]; MSC i.v. 2.0 mg/kg, 2 mg/kg): 447.76 ± 50.30 ng/mL and 447.76 ng/mL
- Minimum mean plasma concentration of MSC ([2]; MSC i.v. 2.0 mg/kg, 24 hr): 0.39 ng/mL
- Mean plasma concentration of MSC ([2]; MSC i.v.): 4.82 ± 1.98 ng/mL
- Maximum mean plasma concentration of MSC ([2]; MSC oral 20.0 mg/kg, 20 mg/kg): 205.92 ± 56.94 ng/mL and 205.92 ng/mL
- Minimum mean plasma concentration of MSC ([2]; MSC oral 20.0 mg/kg, 9 hr, 20 mg/kg): 3.74 ± 1.62 ng/mL and 3.74 ng/mL
- Mean plasma concentration of MSC ([2]; MSC oral): 94.26 ± 40.36 ng/mL
- AUC(0-inf) [2, 6]: 236.6 ng·h/mL
- C(0) [2, 6]: 515.8 ng/mL
- Cl [2, 6]: 140.9 mL/min/kg
- MRT [2, 6]: 120 min
- Vss [2, 6]: 17.2 L/kg
- Vz [2, 6]: 79.0 L/kg
- t1/2 ([2]; MSC single i.v. 2.0 mg/kg, male ICR mice, determined between 9 and 24 hours): 6.5** hr
- AUC(0-inf) [2, 7]: 462.5 ng·h/mL
- Bioavailability [2, 7]: 19.5%
- MAT (MRTPO − MRTIV) [2, 7]: 48 min
- MRT [2, 7]: 168 min
- Tmax [2, 7]: 15 min
- Cmax ([2]; MSC single oral 20.0 mg/kg, male ICR mice, 20 mg/kg): 205.9 ng/mL
- t1/2 ([2]; MSC single oral 20.0 mg/kg, male ICR mice, determined between 4 to 9 hours): 1.2** hr

Compound: Cl.Cn1c(=O)c2c(ncn2CCN2CCN(c3ccccc3Cl)CC2)n(C)c1=O [Pulmodil, 7-[2-[4-(2-chlorobenzene)piperazinyl]ethyl]-1,3-dimethylxanthine.HCl]
- cytotoxicity on rat TSMCs [1]: did not show cytotoxicity
- cell survival rate ([1]; high concentrations (10 and 100 μM), rat TSMCs): ~100%
- Maximum mean plasma concentration of MSC ([3]; Pulmodil i.v. 2.0 mg/kg, 2 min, 2 mg/kg): 1263.1 ± 181.4 ng/mL and 1263.1 ng/mL
- Minimum mean plasma concentration of MSC ([3]; Pulmodil i.v. 2.0 mg/kg, 6 hr, 2 mg/kg): 0.7 ± 0.3 ng/mL and 0.7 ng/mL
- Maximum mean plasma concentration of MSC ([3]; Pulmodil oral 20 mg/kg, 5 min): 1294.1 ng/mL
- Minimum mean plasma concentration of MSC ([3]; Pulmodil oral 20 mg/kg, 9 hr): 5.9 ng/mL
- Mean plasma concentration of MSC ([3]; Pulmodil oral 20 mg/kg, 24 hr (text: 24- and 27-hour), 20 mg/kg): 0.2 ± 0.1 ng/mL and 0.2 ng/mL
- Mean plasma concentration of MSC ([3]; Pulmodil oral 20 mg/kg, within 2 minutes): 879.7 ng/mL
- AUC(0-inf) [3, 8]: 608 ng·h/mL
- Cl [3, 8]: 51.7 mL/min/kg
- MRT [3, 8]: 36 min
- Vss [3, 8]: 1.8 L/kg
- Vz [3, 8]: 3.4 L/kg
- t1/2 [3, 8]: 48 min
- AUC(0-inf) [3, 9]: 1142 ng·h/mL
- Cmax [3, 9]: 1390 ng/mL
- MAT (MRTPO − MRTIV) [3, 9]: 66 min
- MRT [3, 9]: 102 min
- Tmax [3, 9]: 6 min
- t1/2 [3, 9]: 198 min
- AUC(0-inf) [3, 10]: 42 ng·h/mL
- Bioavailability [3, 10]: 3.7%
- Cmax [3, 10]: 27 ng/mL
- MAT (MRTSL − MRTIV) [3, 10]: 108 min
- MRT [3, 10]: 144 min
- Tmax [3, 10]: 6 min
- t1/2 [3, 10]: 138 min
- Maximum mean plasma concentration of MSC ([3]; Pulmodil sublingual 3.6 mg/kg, 10 min): 25.9 ± 5.5 ng/mL and 25.9 ng/mL
- Minimum mean plasma concentration of MSC ([3]; Pulmodil sublingual 3.6 mg/kg, 9 hr): 0.7 ng/mL
- Mean plasma concentration of MSC ([3]; Pulmodil sublingual 3.6 mg/kg, within 2 minutes): 22.5 ± 4.1 ng/mL
- Bioavailability ([3]; route not stated, given as fraction): 0.2
- highest mean plasma concentration of MSC ([4]; Pulmodil i.v. 2.0 mg/kg, 2 minutes): 1263.12 ± 181.44 ng/mL
- highest mean plasma concentration of MSC ([4]; Pulmodil i.v. 2.0 mg/kg, 5 minutes): 1171.077 ± 222.16 ng/mL
- highest mean plasma concentration of MSC ([4]; Pulmodil oral 20 mg/kg, 5 minutes): 954.32 ± 332.81 ng/mL
- highest mean plasma concentration of MSC ([4]; Pulmodil oral 20 mg/kg, 10 minutes): 806.85 ± 160.05 ng/mL
- highest mean plasma concentration of MSC ([4]; Pulmodil sublingual 3.6 mg/kg, 2 minutes): 22.48 ± 4.09 ng/mL
- highest mean plasma concentration of MSC ([4]; Pulmodil sublingual 3.6 mg/kg, 30 minutes): 18.24 ± 5.70 ng/mL
- Cmax [5, 11]: 1785.0 ng/mL

Compound: Cn1c(=O)c2c(ncn2CCN2CCN(c3ccccc3Cl)CC2)n(C)c1=O.O=C(O)CC(O)(CC(=O)O)C(=O)O [Pulmodil-1, 7-[2-[4-(2-chlorobenzene)piperazinyl]ethyl]-1,3-dimethylxanthine.citric acid]
- cytotoxicity on rat TSMCs [1]: did not show cytotoxicity
- Maximum mean plasma concentration of MSC ([5]; Pulmodil-1 i.v. 2.0 mg/kg, 2 mg/kg): 1425.4 ± 138.2 ng/mL and 1425.4 ng/mL
- Minimum mean plasma concentration of MSC ([5]; Pulmodil-1 i.v. 2.0 mg/kg, 2 hr, 2 mg/kg): 2.7 ± 2.2 ng/mL and 2.7 ng/mL
- Maximum mean plasma concentration of MSC ([5]; Pulmodil-1 oral 20.0 mg/kg, 20 mg/kg): 683.2 ± 187.5 ng/mL and 683.2 ng/mL
- Minimum mean plasma concentration of MSC ([5]; Pulmodil-1 oral 20.0 mg/kg, 4 hr): 11.9 ng/mL
- AUC(0-inf) [5, 11]: 371.3 ng·h/mL
- Cl [5, 11]: 90 mL/min/kg
- Cmax [5, 11]: 1785.0 ng/mL
- Vss [5, 11]: 1.4 L/kg
- Vz [5, 11]: 2.0 L/kg
- t1/2 ([5]; Pulmodil-1 single i.v. 2.0 mg/kg, male CD-1 (Crl) mice, determined between 0.5 and 2 hours): 0.3 h
- AUC(0-inf) [5, 12]: 379.3 ng·h/mL
- Cmax [5, 12]: 683.0 ng/mL
- MAT (MRTPO − MRTIV) [5, 12]: 42 min
- Tmax [5, 12]: 18 min
- Bioavailability ([5]; Pulmodil-1 single oral 20.0 mg/kg, male CD-1 (Crl) mice, 20 mg/kg): 10% and 10.2%
- t1/2 ([5]; Pulmodil-1 single oral 20.0 mg/kg, male CD-1 (Crl) mice, determined between 0.5 to 4 hours): 1.0* hr
